In patent publication US12226424B2, “Target protein degradation compounds, their anti-tumor use, their intermediates and use of intermediates” (ShanghaiTech University, priority 2018, dated 2025):
Where two headings read alike, the source gives them in different places.

Assays:
[1] = target: T1, BRD4 (Homo sapiens, UniProt O60885); experiment: Western-blot degradation of BRD4 in MV-4-11 cells; format: cell-based; conditions: 24 hours
Excerpt: (§1) Western-Blot Determination of the Half-Degradation Concentration (DC50) of the PROTAD Compounds on the Target Proteins
(§2) The supernatant was aspirated as total cell protein extracted.

[2] = target: T1, BRD4; experiment: Western-blot detection of BRD4 protein degradation (FIGS. 16a-c); format: cell-based
[3] = target: T2, BRD2 (Homo sapiens, UniProt P25440); experiment: Western-blot half-degradation concentration (DC50) / degradation of BRD2 in MV-4-11 cells; format: cell-based; conditions: 24 hours; for DC50: Western-blot, read-out: DC50 (nM)/MV-4-11 cell line BRD2 degradation
Excerpt: as §1, §2

[4] = target: T2, BRD2; experiment: Western-blot detection of BRD2 protein degradation (FIGS. 16a-c); format: cell-based
[5] = test system: MV-4-11 cells; experiment: Half inhibitory concentration (IC50) on BET-expressing tumor cells, CCK-8, MV-4-11; conditions: Homo sapiens, MV4-11, read-out: IC50 (nM)/MV-4-11 cell line, MV-4-11 cells, 48/72 h, CCK-8
[6] = test system: MDA-MB-468 cells; experiment: Half inhibitory concentration (IC50) on BET-expressing tumor cells, CCK-8, MDA-MB-468; format: cell-based; conditions: Homo sapiens, 48/72 h, read-out: IC50 (nM)/MDA-MB-468 cell line
Method: (§3) BET-expressing cells MV-4-11 cells (human B granulocytic leukemia cells), MDA-MB-231 cells (human breast cancer cells), MDA-MB-468 cells (human breast cancer cells), MDA-MB-453 Cells (human breast cancer cells), MM1S cells (myeloma (immunoglobulin A lambda), B lymphoblasts) and SR cells (human large cell immunoblast lymphoma) were purchased from the American Type Culture Collection (ATCC).
(§4) The cells used in this present disclosure were cultured in a 37° C. incubator containing 5% CO2. The complete cell culture medium was RPMI 1640/IMDM/DMEM medium with 10% fetal bovine serum, and the final concentrations of penicillin and streptomycin were 100 U/mL, respectively. All cells were tested negative for mycoplasma with mycoplasma detection kit before the experiment.
(§5) Determination of the Half Inhibitory Concentration (IC50) of PROTAD Compounds on Tumor Cells
(§6) MV-411 cells, MM1S cells and SR cells were seeded in 100 μL IMDM/RPMI1640/DMEM complete medium at a density of 15000/10000 cells/well; MDA-MB-231 cells, MDA-MB-468 cells, and MDA-MB453 cells were seeded in 100 μL IMDM/RPMI1640/DMEM complete medium at a density of 3000/5000 cells/well, respectively. 100 μL of the inoculated cells were treated with 0.5 μL diluted PROTAD compounds of the present disclosure to be tested at 10 successively decreasing concentrations (starting at the highest concentration of 10 μM; 5-fold serial dilutions). After the cells were treated with the tested drugs 48/72 h, the cell viability was determined according to the CCK-8 reagent manual. The negative control was DMSO, and the positive control was a commercial inhibitor. After CCK-8 treatment for 2 h, the value of O.D.450 was measured using a microplate reader.

[7] = test system: MM1S cells; experiment: Half inhibitory concentration (IC50) on BET-expressing tumor cells, CCK-8, MM1S; format: cell-based; conditions: Homo sapiens, MM1.S, 48/72 h, read-out: IC50 (nM)/MM1S cell line
In short: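 Cells treated for 48/72 h with ten 5-fold dilutions from 10 μM top, DMSO as negative control. Viability read by CCK-8 (2 h, OD450) and IC50 derived from the concentration series; suspension lines seeded at 15000/10000 cells/well, MDA-MB lines at 3000/5000 cells/well.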

[8] = test system: MDA-MB-231 cells; experiment: Half inhibitory concentration (IC50) on BET-expressing tumor cells, CCK-8, MDA-MB-231; format: cell-based; conditions: Homo sapiens, 48/72 h, read-out: IC50 (nM)/MDA-MB-231 cell line
Method: as §3, §4, §5, §6

[9] = test system: SR cells; experiment: Half inhibitory concentration (IC50) on BET-expressing tumor cells, CCK-8, SR; format: cell-based; conditions: Homo sapiens, 48/72 h, read-out: IC50 (nM)/SR cell line
Method: as §3, §4, §5, §6

[10] = test system: MDA-MB-453 cells; experiment: Half inhibitory concentration (IC50) on BET-expressing tumor cells, CCK-8, MDA-MB-453; format: cell-based, human; conditions: 48/72 h, read-out: IC50 (nM)/MDA-MB-453 cell line
Method: as §3, §4, §5, §6

[11] = test system: CDK4/6 protein; experiment: Western-blot determination of CDK4/6 protein degradation (DC50) in Jurkat cells; format: cell-based; conditions: read-out: DC50(nM)/Jurkat cell line
[12] = test system: CDK4/6 protein; experiment: Western-blot determination of CDK4/6 protein degradation (DC50) in T-47D cells; format: cell-based, human; conditions: 24 h drug treatment, read-out: DC50(nM)/T-47D cell line
[13] = Homo sapiens, MDA-MB-453, MDA-MB-453 cells

T2 sequence (P25440 whole entry): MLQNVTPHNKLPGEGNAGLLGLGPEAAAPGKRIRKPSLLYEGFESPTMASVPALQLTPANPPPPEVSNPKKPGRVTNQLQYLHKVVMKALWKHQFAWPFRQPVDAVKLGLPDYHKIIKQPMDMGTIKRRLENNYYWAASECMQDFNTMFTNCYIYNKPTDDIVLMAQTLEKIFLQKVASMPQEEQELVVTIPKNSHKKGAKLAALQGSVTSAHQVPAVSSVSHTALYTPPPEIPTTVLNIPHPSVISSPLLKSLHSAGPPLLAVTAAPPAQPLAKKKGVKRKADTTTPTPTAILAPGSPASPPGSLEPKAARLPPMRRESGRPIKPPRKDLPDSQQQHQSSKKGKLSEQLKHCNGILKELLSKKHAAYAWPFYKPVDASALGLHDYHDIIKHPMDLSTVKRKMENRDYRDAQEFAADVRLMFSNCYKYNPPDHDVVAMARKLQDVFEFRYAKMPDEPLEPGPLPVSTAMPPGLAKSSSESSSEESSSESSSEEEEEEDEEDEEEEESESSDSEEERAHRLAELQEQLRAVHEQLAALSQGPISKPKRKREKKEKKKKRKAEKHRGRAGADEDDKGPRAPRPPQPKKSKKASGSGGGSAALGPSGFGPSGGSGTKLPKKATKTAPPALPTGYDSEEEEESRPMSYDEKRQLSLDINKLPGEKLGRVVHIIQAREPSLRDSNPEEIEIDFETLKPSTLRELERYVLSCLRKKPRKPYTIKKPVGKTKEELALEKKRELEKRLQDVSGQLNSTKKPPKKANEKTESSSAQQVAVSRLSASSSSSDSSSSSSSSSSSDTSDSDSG

Row | Compound | IC50 [5] [nM] | IC50 [6] [nM] | IC50 [7] [nM] | IC50 [8] [nM] | IC50 [10, 13] [nM] | IC50 ([10]; MDA-MB-453 cells) [nM] | DC50 [11] [nM] | DC50 [12] [nM] | further results
1 | Cc1sc2c(c1C)C(c1ccc(Cl)cc1)=N[C@@H](CC(=O)NCCCCCNc1cccc3c1CN(C1CCC(=O)NC1=O)C3=O)c1nnc(C)n1-2 (stereo partly drawn) [SIAIS213110, 2-((S)-4-(4-chlorophenyl)-2,3,9-trimethyl-6H-thieno[3,2-f][1,2,4]triazolo[4,3-a][1,4]diazepin-6-yl)-N-(5-((2-(2,6-dioxopiperidin-3-yl)-1-oxoisoindolin-4-yl)amino)pentyl)acetamide] | – | – | – | – | – | – | – | – | degradation of BRD4 protein (Western-blot) [1]: significantly weaker ability to degrade BRD2 and BRD4 proteins; ability to degrade BRD4 protein (Western-blot, in words) [2]: significantly weaker ability to degrade; degradation of BRD2 protein (Western-blot) [3]: significantly weaker ability to degrade BRD2 and BRD4 proteins; ability to degrade BRD2 protein (Western-blot, in words) [4]: significantly weaker ability to degrade
2 | Cc1sc2c(c1C)C(c1ccc(Cl)cc1)=N[C@@H](CC(=O)NCCCCSc1cccc3c1CN(C1CCC(=O)NC1=O)C3=O)c1nnc(C)n1-2 (stereo partly drawn) [SIAIS171141, 2-((S)-4-(4-chlorophenyl)-2,3,9-trimethyl-6H-thieno[3,2-f][1,2,4]triazolo[4,3-a][1,4]diazepin-6-yl)-N-(4-((2-(2,6-dioxopiperidin-3-yl)-1-oxoisoindolin-4-yl)thio)butyl)acetamide] | 0.25 ± 0.2 | 10 ± 2 | 0.24 | 19.9 ± 9.2 | 112 | 98 | – | – | IC50 [9]: 3.91 nM
3 | CC(=O)c1c(C)c2cnc(Nc3ccc(N4CCN(C(=O)CSc5cccc6c5C(=O)N(C5CCC(=O)NC5=O)C6=O)CC4)cn3)nc2n(C2CCCC2)c1=O (stereo not shown) [SIAIS151046, 4-((2-(4-(6-((6-acetyl-8-cyclopentyl-5-methyl-7-oxo-7,8-dihydropyrido[2,3-d]pyrimidin-2-yl)amino)pyridin-3-yl)piperazin-1-yl)-2-oxoethyl)thio)-2-(2,6-dioxopiperidin-3-yl)isoindoline-1,3-dione] | – | – | – | – | – | – | 1 to 10 | 1 to 10 | –
4 | CC(=O)c1c(C)c2cnc(Nc3ccc(N4CCN(C(=O)COCCSc5cccc6c5C(=O)N(C5CCC(=O)NC5=O)C6=O)CC4)cn3)nc2n(C2CCCC2)c1=O (stereo not shown) [SIAIS184091, 4-((2-(2-(4-(6-((6-acetyl-8-cyclopentyl-5-methyl-7-oxo-7,8-dihydropyrido[2,3-d]pyrimidin-2-yl)amino)pyridin-3-yl)piperazin-1-yl)-2-oxoethoxy)ethyl)thio)-2-(2,6-dioxopiperidin-3-yl)isoindoline-1,3-dione] | – | – | – | – | – | – | 1 to 10 | 1 to 10 | –
5 | Cc1sc2c(c1C)C(c1ccc(Cl)cc1)=N[C@@H](CC(=O)NCCCCCOc1cccc3c1CN(C1CCC(=O)NC1=O)C3=O)c1nnc(C)n1-2 (stereo partly drawn) [SIAIS271066, 2-((S)-4-(4-chlorophenyl)-2,3,9-trimethyl-6H-thieno[3,2-f][1,2,4]triazolo[4,3-a][1,4]diazepin-6-yl)-N-(5-((2-(2,6-dioxopiperidin-3-yl)-1-oxoisoindolin-4-yl)oxy)pentyl)acetamide] | – | – | – | – | – | – | – | – | degradation of BRD4 protein (Western-blot) [1]: significantly weaker ability to degrade BRD2 and BRD4 proteins; ability to degrade BRD4 protein (Western-blot, in words) [2]: significantly weaker ability to degrade; degradation of BRD2 protein (Western-blot) [3]: significantly weaker ability to degrade BRD2 and BRD4 proteins; ability to degrade BRD2 protein (Western-blot, in words) [4]: significantly weaker ability to degrade
6 | Cc1sc2c(c1C)C(c1ccc(Cl)cc1)=N[C@@H](CC(=O)NCCCCSc1cccc3c1C(=O)N(C1CCC(=O)NC1=O)C3=O)c1nnc(C)n1-2 (stereo partly drawn) [SIAIS171037, 2-((S)-4-(4-chlorophenyl)-2,3,9-trimethyl-6H-thieno[3,2-f][1,2,4]triazolo[4,3-a][1,4]diazepin-6-yl)-N-(4-((2-(2,6-dioxopiperidin-3-yl)-1,3-dioxoisoindolin-4-yl)thio)butyl)acetamide] | 6.2 ± 4.1 | 52.5 ± 24 | 5.36 | 88 ± 38 | 154 | 226 | – | – | DC50 [3]: < 0.4 nM
7 | CC(=O)c1c(C)c2cnc(Nc3ccc(N4CCN(C(=O)CCCCCCSc5cccc6c5C(=O)N(C5CCC(=O)NC5=O)C6=O)CC4)cn3)nc2n(C2CCCC2)c1=O (stereo not shown) [SIAIS184090, 4-((7-(4-(6-((6-acetyl-8-cyclopentyl-5-methyl-7-oxo-7,8-dihydropyrido[2,3-d]pyrimidin-2-yl)amino)pyridin-3-yl)piperazin-1-yl)-7-oxoheptyl)thio)-2-(2,6-dioxopiperidin-3-yl)isoindoline-1,3-dione] | – | – | – | – | – | – | 1 to 10 | 1 to 10 | –
8 | Cc1sc2c(c1C)C(c1ccc(Cl)cc1)=N[C@@H](CC(=O)NCCCCCSc1cccc3c1CN(C1CCC(=O)NC1=O)C3=O)c1nnc(C)n1-2 (stereo partly drawn) [SIAIS171142, 2-((S)-4-(4-chlorophenyl)-2,3,9-trimethyl-6H-thieno[3,2-f][1,2,4]triazolo[4,3-a][1,4]diazepin-6-yl)-N-(5-((2-(2,6-dioxopiperidin-3-yl)-1-oxoisoindolin-4-yl)thio)pentyl)acetamide] | 0.08 ± 0.03 | 6.1 ± 0.4 | 0.31 | 17.7 ± 7.6 | 37.4 | 37.1 | – | – | IC50 [9]: 2.42 nM

The next lines start with results.

Row | IC50 [5] [nM] | IC50 [6] [nM] | IC50 [7] [nM] | IC50 [8] [nM] | IC50 [10, 13] [nM] | IC50 ([10]; MDA-MB-453 cells) [nM] | DC50 [11] [nM] | DC50 [12] [nM] | Compound | further results
9 | 6.2 ± 3 | 61 ± 8 | 7.77 | 182 ± 89 | 135 | 230 | – | – | Cc1sc2c(c1C)C(c1ccc(Cl)cc1)=N[C@@H](CC(=O)NCCCCCSc1cccc3c1C(=O)N(C1CCC(=O)NC1=O)C3=O)c1nnc(C)n1-2 (stereo partly drawn) [SIAIS171038, 2-((S)-4-(4-chlorophenyl)-2,3,9-trimethyl-6H-thieno[3,2-f][1,2,4]triazolo[4,3-a][1,4]diazepin-6-yl)-N-(5-((2-(2,6-dioxopiperidin-3-yl)-1,3-dioxoisoindolin-4-yl)thio)pentyl)acetamide] | DC50 [3]: < 0.4 nM
10 | 0.3 | 376 ± 55 | 0.32 | 313 ± 309 | – | – | – | – | Cc1sc2c(c1C)C(c1ccc(Cl)cc1)=N[C@@H](CC(=O)NCCCCCCSc1cccc3c1CN(C1CCC(=O)NC1=O)C3=O)c1nnc(C)n1-2 (stereo partly drawn) [SIAIS171143, 2-((S)-4-(4-chlorophenyl)-2,3,9-trimethyl-6H-thieno[3,2-f][1,2,4]triazolo[4,3-a][1,4]diazepin-6-yl)-N-(6-((2-(2,6-dioxopiperidin-3-yl)-1-oxoisoindolin-4-yl)thio)hexyl)acetamide] | IC50 [9]: 1.48 nM
11 | – | – | – | – | – | – | < 1 | < 0.1 | CC(=O)c1c(C)c2cnc(Nc3ccc(N4CCN(C(=O)CCCCSc5cccc6c5CN(C5CCC(=O)NC5=O)C6=O)CC4)cn3)nc2n(C2CCCC2)c1=O (stereo not shown) [SIAIS184092, 3-(4-((5-(4-(6-((6-acetyl-8-cyclopentyl-5-methyl-7-oxo-7,8-dihydropyrido[2,3-d]pyrimidin-2-yl)amino)pyridin-3-yl)piperazin-1-yl)-5-oxopentyl)thio)-1-oxoisoindolin-2-yl)piperidine-2,6-dione] | –
